In PubChem BioAssay (NCI):
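All cell lines were grown in 96-well plates and treated with compound for 48 hours. At the GI50, growth is halved. TGI denotes the concentration required for complete inhibition of growth.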

Key:
Assay in all cases: NCI anticancer screen, dose series, 48 h
OVCAR-4 ovarian = system: OVCAR-4 ovarian
HCT-116 colon = system: HCT-116 colon
A498 renal = system: A498 renal
SK-MEL-5 melanoma = system: SK-MEL-5 melanoma
NCI-H460 lung = system: NCI-H460 lung
UACC-257 melanoma = system: UACC-257 melanoma
A549 NSCLC = system: A549 NSCLC
786-0 renal = system: 786-0 renal
HL-60(TB) leukemia = system: HL-60(TB) leukemia
MDA-MB-435 = system: MDA-MB-435
HT29 colon = system: HT29 colon
MOLT-4 leukemia = system: MOLT-4 leukemia
HS 578T breast = system: HS 578T breast
HOP-92 NSCLC = system: HOP-92 NSCLC
SNB-19 CNS = system: SNB-19 CNS
K-562 leukemia = system: K-562 leukemia
OVCAR-3 ovarian = system: OVCAR-3 ovarian
U251 CNS = system: U251 CNS
IGROV1 ovarian = system: IGROV1 ovarian
SK-MEL-28 melanoma = system: SK-MEL-28 melanoma
NCI-H23 lung = system: NCI-H23 lung
RPMI-8226 leukemia = system: RPMI-8226 leukemia
UO-31 renal = system: UO-31 renal
MALME-3M melanoma = system: MALME-3M melanoma
MCF7 breast = system: MCF7 breast
SN12C renal = system: SN12C renal
M14 melanoma = system: M14 melanoma
EKVX NSCLC = system: EKVX NSCLC
PC-3 prostate = system: PC-3 prostate
ACHN renal = system: ACHN renal
HCT-15 colon = system: HCT-15 colon
SF-539 CNS = system: SF-539 CNS
SF-268 CNS = system: SF-268 CNS
NCI-H522 lung = system: NCI-H522 lung
COLO 205 colon = system: COLO 205 colon
OVCAR-8 ovarian = system: OVCAR-8 ovarian
CCRF-CEM leukemia = system: CCRF-CEM leukemia
SNB-75 CNS = system: SNB-75 CNS
SK-MEL-2 melanoma = system: SK-MEL-2 melanoma
TK-10 renal = system: TK-10 renal
HCC-2998 colon = system: HCC-2998 colon
CAKI-1 renal = system: CAKI-1 renal
SK-OV-3 ovarian = system: SK-OV-3 ovarian
KM12 colon = system: KM12 colon
SW-620 colon = system: SW-620 colon
DU-145 prostate = system: DU-145 prostate
SF-295 CNS = system: SF-295 CNS
NCI/ADR-RES ovarian = system: NCI/ADR-RES ovarian
OVCAR-5 ovarian = system: OVCAR-5 ovarian
BT-549 breast = system: BT-549 breast
RXF 393 renal = system: RXF 393 renal
HOP-62 NSCLC = system: HOP-62 NSCLC
T-47D breast = system: T-47D breast
UACC-62 melanoma = system: UACC-62 melanoma
NCI-H226 lung = system: NCI-H226 lung
MDA-MB-231 breast = system: MDA-MB-231 breast
LOX IMVI melanoma = system: LOX IMVI melanoma

SMILES: COc1cc(C2C3=C(NC(=O)C2C#N)c2ccc4ccccc4c2OCC3)cc(OC)c1OC (stereo not drawn)
- TGI (OVCAR-4 ovarian): > 100 µM
- TGI (HCT-116 colon): 29.1 µM
- TGI (A498 renal): 44 µM
- TGI (SK-MEL-5 melanoma): > 100000 nM
- TGI (NCI-H460 lung): > 100 µM
- TGI (UACC-257 melanoma): > 100 µM
- TGI (A549 NSCLC): > 100 µM
- TGI (786-0 renal): > 100 µM
- TGI (HL-60(TB) leukemia): > 100 µM
- TGI (MDA-MB-435): > 100 µM
- TGI (HT29 colon): > 100 µM
- TGI (MOLT-4 leukemia): > 100 µM
- TGI (HS 578T breast): 68.1 µM
- TGI (HOP-92 NSCLC): 29.7 µM
- TGI (SNB-19 CNS): > 100 µM
- TGI (K-562 leukemia): > 100 µM
- TGI (OVCAR-3 ovarian): > 100 µM
- TGI (U251 CNS): 30.4 µM
- TGI (IGROV1 ovarian): 36.9 µM
- TGI (SK-MEL-28 melanoma): > 100 µM
- TGI (NCI-H23 lung): > 100 µM
- TGI (RPMI-8226 leukemia): > 100 µM
- TGI (UO-31 renal): 28.3 µM
- TGI (MALME-3M melanoma): 72.5 µM
- TGI (MCF7 breast): > 100 µM
- TGI (SN12C renal): 38.9 µM
- TGI (M14 melanoma): > 100000 nM
- TGI (EKVX NSCLC): > 100 µM
- TGI (PC-3 prostate): > 100 µM
- TGI (ACHN renal): 30.2 µM
- TGI (HCT-15 colon): > 100 µM
- TGI (SF-539 CNS): 42.3 µM
- TGI (SF-268 CNS): 64.1 µM
- TGI (NCI-H522 lung): > 100 µM
- TGI (COLO 205 colon): 33.1 µM
- TGI (OVCAR-8 ovarian): > 100 µM
- TGI (CCRF-CEM leukemia): > 100 µM
- TGI (SNB-75 CNS): 34.5 µM
- TGI (SK-MEL-2 melanoma): 59.4 µM
- TGI (TK-10 renal): > 100 µM
- TGI (HCC-2998 colon): 65.2 µM
- TGI (CAKI-1 renal): 45.7 µM
- TGI (SK-OV-3 ovarian): 62.4 µM
- TGI (KM12 colon): > 100 µM
- TGI (SW-620 colon): > 100 µM
- TGI (DU-145 prostate): > 100 µM
- TGI (SF-295 CNS): > 100 µM
- TGI (NCI/ADR-RES ovarian): > 100 µM
- TGI (OVCAR-5 ovarian): 42.3 µM
- TGI (BT-549 breast): 42.9 µM
- TGI (RXF 393 renal): 32.9 µM
- TGI (HOP-62 NSCLC): 50.5 µM
- TGI (T-47D breast): 62.5 µM

SMILES: C=C(c1ccc(C(=O)NCCCn2ccnc2)cc1)c1cc2c(cc1C)C(C)(C)CCC2(C)C
- GI50 (OVCAR-4 ovarian): 4.1 µM
- TGI (OVCAR-4 ovarian): 26 µM
- GI50 (HCT-116 colon): 39.8 nM
- TGI (HCT-116 colon): 1.79 µM
- GI50 (A498 renal): 25.2 µM
- TGI (A498 renal): > 100 µM
- GI50 (SK-MEL-5 melanoma): 1140 nM
- TGI (SK-MEL-5 melanoma): 2430 nM
- GI50 (NCI-H460 lung): 870 nM
- TGI (NCI-H460 lung): 10.5 µM
- TGI (UACC-257 melanoma): 7.53 µM
- GI50 (A549 NSCLC): 1140 nM
- TGI (A549 NSCLC): 16.4 µM
- GI50 (786-0 renal): 1940 nM
- TGI (786-0 renal): 5.45 µM
- GI50 (HL-60(TB) leukemia): 1060 nM
- TGI (HL-60(TB) leukemia): 3.93 µM
- GI50 (MDA-MB-435): 73.4 nM
- TGI (MDA-MB-435): 16 µM
- GI50 (HT29 colon): 509 nM
- TGI (HT29 colon): 6.8 µM
- GI50 (MOLT-4 leukemia): 2650 nM
- TGI (MOLT-4 leukemia): > 100 µM
- GI50 (HOP-92 NSCLC): 1620 nM
- TGI (HOP-92 NSCLC): 7.26 µM
- GI50 (SNB-19 CNS): 2250 nM
- TGI (SNB-19 CNS): > 100 µM
- GI50 (K-562 leukemia): 651 nM
- TGI (K-562 leukemia): > 100 µM
- GI50 (OVCAR-3 ovarian): 1690 nM
- TGI (OVCAR-3 ovarian): 6.09 µM
- GI50 (U251 CNS): 288 nM
- TGI (U251 CNS): 3.29 µM
- GI50 (IGROV1 ovarian): 1920 nM
- TGI (IGROV1 ovarian): > 32 µM
- GI50 (SK-MEL-28 melanoma): 1710 nM
- TGI (SK-MEL-28 melanoma): 6.38 µM
- GI50 (UACC-62 melanoma): 1670 nM
- TGI (UACC-62 melanoma): 3.92 µM
- GI50 (NCI-H23 lung): 3.69 µM
- TGI (NCI-H23 lung): 66.5 µM
- GI50 (UO-31 renal): 3.93 µM
- TGI (UO-31 renal): 17.7 µM
- GI50 (MALME-3M melanoma): 3.2 µM
- TGI (MALME-3M melanoma): 22.4 µM
- GI50 (MCF7 breast): 1250 nM
- TGI (MCF7 breast): 13.8 µM
- GI50 (SN12C renal): < 19.5 nM
- TGI (SN12C renal): 10.8 µM
- GI50 (M14 melanoma): 62.7 nM
- TGI (M14 melanoma): 2040 nM
- GI50 (EKVX NSCLC): 4.84 µM
- TGI (EKVX NSCLC): > 100 µM
- GI50 (PC-3 prostate): 158 nM
- TGI (PC-3 prostate): > 51.7 µM
- GI50 (ACHN renal): 2160 nM
- TGI (ACHN renal): 14.1 µM
- GI50 (HCT-15 colon): 118 nM
- TGI (HCT-15 colon): 17 µM
- GI50 (SF-539 CNS): 56.5 nM
- TGI (SF-539 CNS): 2.17 µM
- GI50 (SF-268 CNS): 3.83 µM
- TGI (SF-268 CNS): > 100 µM
- GI50 (NCI-H522 lung): 123 nM
- TGI (NCI-H522 lung): 3.72 µM
- GI50 (COLO 205 colon): 1120 nM
- TGI (COLO 205 colon): 3.28 µM
- GI50 (NCI-H226 lung): 2100 nM
- TGI (NCI-H226 lung): 7.94 µM
- GI50 (OVCAR-8 ovarian): 2950 nM
- TGI (OVCAR-8 ovarian): 10.7 µM
- GI50 (MDA-MB-231 breast): 1440 nM
- TGI (MDA-MB-231 breast): 9.78 µM
- GI50 (SNB-75 CNS): 2460 nM
- TGI (SNB-75 CNS): 7.82 µM
- GI50 (SK-MEL-2 melanoma): 2710 nM
- TGI (SK-MEL-2 melanoma): 7.33 µM
- GI50 (TK-10 renal): 2970 nM
- TGI (TK-10 renal): 7.87 µM
- GI50 (HCC-2998 colon): 419 nM
- TGI (HCC-2998 colon): 3.85 µM
- GI50 (CAKI-1 renal): 1470 nM
- TGI (CAKI-1 renal): > 51.2 µM
- GI50 (SK-OV-3 ovarian): 2090 nM
- TGI (SK-OV-3 ovarian): 5.59 µM
- GI50 (KM12 colon): 370 nM
- TGI (KM12 colon): > 50.6 µM
- GI50 (LOX IMVI melanoma): 395 nM
- TGI (LOX IMVI melanoma): 4.48 µM
- GI50 (DU-145 prostate): 744 nM
- TGI (DU-145 prostate): > 62.5 µM
- GI50 (SF-295 CNS): 1310 nM
- TGI (SF-295 CNS): 18.7 µM
- GI50 (NCI/ADR-RES ovarian): 80.7 nM
- TGI (NCI/ADR-RES ovarian): > 36.1 µM
- GI50 (OVCAR-5 ovarian): 953 nM
- TGI (OVCAR-5 ovarian): 12.7 µM
- GI50 (BT-549 breast): 3.14 µM
- TGI (BT-549 breast): 14.9 µM
- GI50 (RXF 393 renal): 1710 nM
- TGI (RXF 393 renal): 4.71 µM
- GI50 (HOP-62 NSCLC): 2460 nM
- TGI (HOP-62 NSCLC): 11.6 µM
- GI50 (T-47D breast): 281 nM
- TGI (T-47D breast): 6.76 µM
